One series deals with T1, neutrophilic elastase (Homo sapiens, UniProt P08246).
T1 construct: purchased Elastin Products Co., Inc
T1 sequence (P08246 30-267): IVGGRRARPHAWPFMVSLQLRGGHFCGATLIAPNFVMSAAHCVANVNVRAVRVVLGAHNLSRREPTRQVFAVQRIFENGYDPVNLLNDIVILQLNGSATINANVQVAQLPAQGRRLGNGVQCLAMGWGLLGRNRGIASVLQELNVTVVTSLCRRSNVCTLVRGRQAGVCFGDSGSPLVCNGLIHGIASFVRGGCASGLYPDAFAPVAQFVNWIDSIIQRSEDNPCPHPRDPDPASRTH
The experiment in a line: Test 1: neutrophilic elastase inhibiting activity of non-oxidized and oxidized elafins (AAPV-pNA substrate). Type of series: biochemical. The method, then:
Natural elafin and the elafin derivatives were oxidized, and variations in their inhibiting activity against neutrophilic elastase were investigated. Oxidative reaction solutions of natural elafin and the elafin derivatives as elastase inhibitors were each prepared by adding 220 μM of H2 O2 and 6 nM of myeloperoxidase (product of Elastin Products Co., Ltd.) to 250 μl of a phosphate buffer (product of TAKARA SHUZO CO., LTD.) which contained 5 μg of the corresponding elafin or elafin derivative, incubating the resulting mixture at 37° C. for 20 minutes and then adding the same volume of a reaction terminating solution (catalase 0.2 mg/ml, 5 mM methionine).
Further, the measurement of elastase activity was conducted as will be described below by using 5-100 μl of the oxidative reaction solution (inhibitor concentration: 10 μg/ml) of natural elafin and the elafin derivatives prepared as described above.

The next series concerns endotoxin-treated mice. The experiment in a line: Test 3: survival rate in mouse endotoxin shock model. The class given is in vivo, ICR male mice. To be noted: test substance i.v. four times, survivors/10 mice. As for the experimental part: Using a mouse endotoxin shock model, effects of the elafin derivative according to this invention on the survival rate were investigated while using natural elafin and urinastatin, which is a urinary trypsin inhibitor having anti-elastase action, as comparative substances. After endotoxin was administered at 6 mg/Kg to the caudal veins of ten 7 weeks-old ICR male mice (CHARLES RIVER JAPAN, INC.) in each group, the mice were administered with one of the test substance. Their survival rate was observed along the passage of time. The test substance was administered to the caudal veins of the mice four times in total, that is, 10 minutes before the administration of endotoxin and 3 hours, 6 hours and 12 hours after its administration.
Employed as the test substances were natural elafin, the elafin derivative according to the present invention in which the methionine at the 25th had been modified to leucine (hereinafter called "L-elafin") and urinastatin ("MIRACLID"™;product of MOCHIDA PHARMACEUTICAL CO., LTD.; hereinafter called "UTI").
Natural elafin and L-elafin were each dissolved in a buffer of 20 mM sodium acetate physiological saline, in which 1% bovine serum albumin had been added, whereas UTI was dissolved in the physiological saline.
As a control, a buffer of 20 mM sodium acetate physiological saline, in which 1% bovine serum albumin had been added, was used.

A further series has as its system elastase. As to the kind of experiment: Elastase inhibiting activity of purified recombinant elafin (Referential Examples 1 and 2). The class given is biochemical. The following applies: elafin produced by Escherichia coli, purified by reverse phase HPLC.
The mark [1] stands for this setting: 12 hrs after administration of endotoxin (6 mg/Kg, caudal vein).
The mark [2] stands for this setting: 14 hrs after administration of endotoxin (6 mg/Kg, caudal vein).
Where [3] appears, read: 16 hrs after administration of endotoxin (6 mg/Kg, caudal vein).
[4] abbreviates: 18 hrs after administration of endotoxin (6 mg/Kg, caudal vein).
Setting [5] is: 20 hrs after administration of endotoxin (6 mg/Kg, caudal vein).
Setting [6] is: 22 hrs after administration of endotoxin (6 mg/Kg, caudal vein).
Setting [7] is: 24 hrs after administration of endotoxin (6 mg/Kg, caudal vein).
[8] abbreviates: 26 hrs after administration of endotoxin (6 mg/Kg, caudal vein).
Where [9] appears, read: 28 hrs after administration of endotoxin (6 mg/Kg, caudal vein).
Setting [10] is: 30 hrs after administration of endotoxin (6 mg/Kg, caudal vein).
The mark [11] stands for this setting: 36 hrs after administration of endotoxin (6 mg/Kg, caudal vein).
Setting [12] is: 48 hrs after administration of endotoxin (6 mg/Kg, caudal vein).

The record followed here is patent US5734014A, “Elafin derivative” (Tsumura & Co., priority 1992, dated 1998).

For the substance “Natural elafin: 57-residue elastase inhibitor isolated from psoriatics (SEQ ID NO:2); produced recombinantly in Escherichia coli or yeast (AQEPVKGPVSTKPGSCPIILIRCAMLNPPNRCLKDTDCPGIKKCCEGSCGMACFVPQ)”, the stability to oxidation result with neutrophilic elastase (general statement of the inventors' findings) is on record as “unstable to oxidation”. Moreover, in the series with neutrophilic elastase (oxidized with 220 μM H2O2 and 6 nM myeloperoxidase, 37° C., 20 minutes, FIG. 3), the “variation in inhibiting activity against neutrophilic elastase by oxidation” value was “significantly decrease”. Besides, the Survival rate in the series with endotoxin-treated mice (setting [1]) is on record as 10/10; with endotoxin-treated mice (setting [2]), 10/10; with endotoxin-treated mice (setting [3]) it was 9/10; in the series with endotoxin-treated mice (setting [4]), 8/10; with endotoxin-treated mice (setting [5]), 5/10; in the series on endotoxin-treated mice (setting [6]) it was 5/10. The Survival rate is given as 3/10 with endotoxin-treated mice (setting [7]); 2/10 with endotoxin-treated mice (setting [8]); 1/10 in the series with endotoxin-treated mice (setting [9]); 0/10 in the series with endotoxin-treated mice (setting [10]); 0/10 in the series on endotoxin-treated mice (setting [11]); 0/10 in the series with endotoxin-treated mice (setting [12]). Moreover, in the series with elastase, the elastase inhibiting activity entry is given as “strong inhibiting activity”.

For “Reduced elafin: elafin in the completely reduced form, before formation of S--S bonds (AQEPVKGPVSTKPGSCPIILIRCAMLNPPNRCLKDTDCPGIKKCCEGSCGMACFVPQ)”, in the series with elastase, the elastase inhibiting activity result is given as “did not show any inhibiting activity”.

Turning to “urinastatin (MIRACLID) [UTI, product of MOCHIDA PHARMACEUTICAL CO., LTD]”, the Survival rate in the series on endotoxin-treated mice (setting [1]) is 10/10; with endotoxin-treated mice (setting [2]), 10/10; in the series with endotoxin-treated mice (setting [3]), 8/10; in the series on endotoxin-treated mice (setting [4]) it was 8/10; with endotoxin-treated mice (setting [5]) it was 4/10; in the series with endotoxin-treated mice (setting [6]), 4/10. For the same substance, the Survival rate in the series on endotoxin-treated mice (setting [7]) is recorded as 2/10; in the series on endotoxin-treated mice (setting [8]), 1/10; with endotoxin-treated mice (setting [9]) it was 0/10; with endotoxin-treated mice (setting [10]), 0/10; in the series with endotoxin-treated mice (setting [11]), 0/10; in the series with endotoxin-treated mice (setting [12]), 0/10.
